Laboratory results reported in US12286418B2, “Compounds and methods for treating or preventing bacterial infections” (priority 2019, dated 2025).
“And” between values parts separate entries of the source, which are not always exact repeats. Equal entries are not always repeated. “Also recorded” adds a separate entry of the source. Where two headings read alike, the source gives them in different places.

Experiments:
E. coli MG1655OXA-48 = assay: Bacterial susceptibility (MIC, broth microdilution) of E. coli expressing OXA-48; assay type: cell-based; conditions: for MIC: Escherichia coli
Experimental: Bacterial susceptibility was specifically tested using minimum inhibitory concentration assays. Susceptibility assays were performed with E. coli strains using broth in a microplate set up. Two-fold dilutions of antibiotic and/or inhibitor were used. For susceptibility tests, bacterial strains were transformed with plasmids containing OXA-48 with its endogenous signal sequence for periplasmic migration (cloned into pTP123 vector) (Majiduddin & Palzkill, 2003, Antimicrob. Agents Chemother. 47:1062-1067). pTP123 was cut with XbaI and SacI and the linearized fragment was assembled using Gibson assembly (New England Biolabs, Ipswich, MA) its signal sequence cloned in by using Gibson assembly. Bacteria were grown in Mueller-Hinton broth with 12.5 μg/mL chloramphenicol (plasmid marker) overnight. An overnight culture was diluted 1:10^4 into the final well solutions (100 uL total) and incubated for 16-18 hours. After incubation, microplates were read using a Tecan plate reader at absorbance 600. Growth was objectively defined as yielding an absorbance ≥2 times the absorbance of the negative control (media and no culture). Experiments were repeated with new bacterial inoculums each time.
Effective β-lactamase inhibitors synergize with β-lactam antibiotics and ultimately lower the minimum inhibitory concentration (MIC) of antibiotic needed to kill the bacteria. MIC studies were performed with ampicillin (AMP), a β-lactam antibiotic readily hydrolyzed by OXA-48, against E. coli strain MG1655 expressing OXA-48 (MG1655OXA-48). The OXA-48 plasmid construct contained the endogenous signal sequence of OXA-48 for secretion to the periplasm, which was expressed under a trc-promoter, allowing leaky expression in the absence of IPTG inducer. All MICs were performed by broth microdilution with 2-fold dilutions of antibiotic and/or inhibitor (FIG. 6A). The ampicillin (AMP) and imipenem (IMP) MICs were separately determined for a range of CDD-97 and avibactam concentrations. […] In the absence of bacteria, the media (Mueller Hinton) gives an absorbance reading of 0.04 so absorbance readings greater than or equal to two-fold the control were considered bacterial growth. […] CDD-97 was tested for its synergistic ability by determining AMP MICs with a range of CDD-97 concentrations (up to 256 μg/ml).
Impermeability of the outer membrane to small molecules is a major challenge for the development of therapeutics for Gram-negative bacterial infections. β-lactamases, including OXA-48, reside in the periplasmic space and so inhibitors must traverse the outer membrane to be effective. To determine whether low permeability caused the poor in vivo activity of CDD-97, an accumulation assay (Richter, et al., 2017, Nature 545:299-304) was performed to quantify the amount of CDD-97 present in E. coli cells after incubation. In the assay, tetracycline was used as a positive control while fusidic acid and clindamycin were used as negative controls (Richter, et al., 2017, Nature 545:299-304). Controls and CDD-97 were separately incubated with wildtype E. coli (MG1655) cells and then these cells were centrifuged through silicone oil to separate free, unaccumulated compound from the cell pellet. Cell lysates were collected by freeze-thawing and analyzed by mass spectrometry to quantify the amount of accumulated compound. Compared to tetracycline, CDD-97 was present in cells at 20-fold lower levels (FIG. 6B). […] The finding that CDD-97 accumulates inefficiently across the outer membrane was also examined by adding sub-lethal concentrations of colistin to the ampicillin/CDD-97 MIC assays. Colistin is known to disrupt the outer membrane and enhance permeability in E. coli. If the outer membrane is a barrier for CDD-97, it was predicted that the addition of sub-lethal concentrations of colistin would enhance the activity of CDD-97 against E. coli. […]

OXA-48 = OXA-48 (Klebsiella pneumoniae, UniProt Q6XEC0); assay: OXA-48 inhibition assay using nitrocefin as reporter; assay type: biochemical; design: His-tag (N, cleaved yes); made in house; host or cells: E. coli BL21(DE3), pET28a; conditions: for potency/activity against OXA-48 in words: purified OXA-48, compared with CDD-97 where a derivative
Chain of OXA-48 (Q6XEC0 23-265, looked up): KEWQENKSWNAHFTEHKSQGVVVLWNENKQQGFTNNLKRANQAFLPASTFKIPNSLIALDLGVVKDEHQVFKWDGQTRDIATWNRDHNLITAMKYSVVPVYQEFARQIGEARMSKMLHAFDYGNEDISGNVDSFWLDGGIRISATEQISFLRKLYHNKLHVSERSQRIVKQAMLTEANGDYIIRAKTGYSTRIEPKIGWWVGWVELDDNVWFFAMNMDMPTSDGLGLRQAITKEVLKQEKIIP
Experimental: Nitrocefin, a chromogenic β-lactam substrate, was used as a reporter in all inhibition assays with the various OXA enzymes and various compounds. Nitrocefin is not stable in aqueous solution long-term. For these assays, nitrocefin stocks were prepared in DMSO, stored at −20° C. and used within 2 weeks of dissolving. To avoid freeze-thawing, fresh stocks were always used. The Km of nitrocefin was determined prior to inhibition assays by performing steady state kinetics. Assays were performed using a DU800 spectrophotometer at room temperature in 50 mM HEPES pH 7.5, 15 mM NaHCO3, and 0.02% tween 20 buffer. Hydrolyzed nitrocefin was detected at 482 nm. For a single experiment, a series of at least 5 nitrocefin concentrations were tested against the given enzyme in duplicate and the initial velocities were measured and fit to the Michaelis-Menten equation. Experiments were repeated twice, and error reported is the standard error of the mean.
Compounds were tested for inhibition of a given OXA enzyme from hydrolyzing nitrocefin using a Tecan plate reader. […] A control with no compound was included in each run. For each compound concentration, the velocity of nitrocefin hydrolysis was determined at 482 nm and fit to the Morrison equation. […] The average Ki of separate experiments, each of which consisted of duplicate runs, is reported and error was quantified as the standard deviation.
The activity of these derivatives was assessed using inhibition assays with purified OXA-48. Compounds were tested for the ability to inhibit OXA-48 from hydrolyzing nitrocefin, a chromogenic β-lactam substrate routinely used in β-lactamase inhibition assays. Nitrocefin contains a conjugated ring system that is readily hydrolyzed and produces a visible color shift from yellow to red upon hydrolysis (O'Callaghan, et al., 1972, Antimicrob. Agents Chemother. 1:283-288). The rate of nitrocefin hydrolysis in the presence of a constant amount of OXA-48 and increasing concentrations of a given compound of interest was monitored at 482 nm. These rates were plotted against compound concentration to determine the inhibition constant (Ki) against OXA-48. […] SPR was performed using 6×-His-OXA-48 enzyme that was amine-coupled on a Ni-NTA Chip. Meropenem, which covalently binds and inhibits OXA-48, was used as a positive control.

[1] = purified OXA-48, nitrocefin hydrolysis, Morrison fit

C[C@@H](O)[C@H]1C(=O)N2C(C(=O)O)=C(SCCN=CN)C[C@H]12 [IMP, imipenem, reference compound] was tested, and the MIC (E. coli MG1655OXA-48; MG1655OXA48, read-out: IMP MIC, imipenem alone, no inhibitor) was 0.625 mg/L.

CS(=O)(=O)c1ccccc1N1CCN(c2ncnc(N3CCC(C(=O)O)CC3)n2)CC1 [CDD-181, 1-(4-(4-(2-(methylsulfonyl)phenyl)piperazin-1-yl)-1,3,5-triazin-2-yl)piperidine-4-carboxylic acid] gave a Ki (OXA-48; [1]) of 3.23 ± 0.39 µM.

CCOc1ccccc1N1CCN(c2ncnc(N3CCC(S(=O)(=O)O)CC3)n2)CC1 [CDD-862, 1-(4-(4-(2-ethoxyphenyl)piperazin-1-yl)-1,3,5-triazin-2-yl)piperidine-4-sulfonic acid] was tested, and the Ki (OXA-48; purified OXA-48, nitrocefin) was 0.26 µM and the Ki (OXA-48; [1]) was 0.27 ± 0.02 µM.

For CCOc1ccccc1N1CCN(c2nc(N3CCC(C(=O)O)CC3)nc(N3CC(F)(C(=O)NC)C3)n2)CC1 [CDD-163, 1-(4-(4-(2-ethoxyphenyl)piperazin-1 yl)-6-(3-fluoro-3-(methylcarbamoyl)azetidin-1-yl)-1,3,5-triazin-2-yl)piperidine-4-carboxylic acid], the Ki (OXA-48; [1]) was > 50 µM.

Compound O=C(O)C1CCN(c2ncnc(N3CCN(c4ccccc4C(F)(F)F)CC3)n2)CC1 [CDD-180, 1-(4-(4-(2-(trifluoromethyl)phenyl)piperazin-1-yl)-1,3,5-triazin-2-yl)piperidine-4-carboxylic acid] has a Ki (OXA-48; [1]) of 1.7 µM.

With CCOc1ccccc1N1CCN(c2ncnc(N3CCNC(C(=O)O)CC3)n2)CC1 (stereo not drawn) [CDD-559] the Ki (OXA-48; [1]) was 29 µM and the “fold reduction in potency (OXA-48 Ki) compared to CDD-97” value (OXA-48; relative to CDD-97) was “approximately 50 fold”.

“1-(4-(2-(2-ethoxyphenoxy)ethoxy)-1,3,5-triazin-2-yl)piperidine-4-carboxylic acid [CDD-900]” showed a Ki (OXA-48; [1]) of 38.1 µM.

For O=C(O)C1CCN(c2ncnc(N3CCN(c4ccccc4OCC(F)(F)F)CC3)n2)CC1 [CDD-178, 1-(4-(4-(2-(2,2,2-trifluoroethoxy)phenyl)piperazin-1-yl)-1,3,5-triazin-2-yl)piperidine-4-carboxylic acid], the Ki (OXA-48; [1]) was 1 µM and 0.83 µM.

Compound CCOc1ccccc1N1CCN(c2ncnc(N3CCC(N)(C(=O)O)CC3)n2)CC1 has a Ki (OXA-48; [1]) of 29 ± 4 µM.

Work on CCOc1ccccc1N1CCN(c2nc(NCCN)nc(N3CCC(C(=O)O)CC3)n2)CC1 [CDD-864, 1-(4-((2-aminoethyl)amino)-6-(4-(2-ethoxyphenyl)piperazin-1-yl)-1,3,5-triazin-2-yl)piperidine-4-carboxylic acid] yielded a Ki (OXA-48; [1]) of 0.6 µM.

NC(=O)[C@@H]1CC[C@@H]2CN1C(=O)N2OS(=O)(=O)O [avibactam, reference compound] was tested, and the “synergy with β-lactam antibiotics (effect on AMP/IMP MIC) in words” value (E. coli MG1655OXA-48; E. coli expressing OXA-48, CDD-97 up to 256 μg/mL, avibactam up to 4 μg/mL) was “dose-dependent decrease in both the AMP and IMP MICs”, the MIC (E. coli MG1655OXA-48; MG1655OXA48, read-out: AMP MIC, with 0.125 μg/mL avibactam) was 256 mg/L and the MIC (E. coli MG1655OXA-48; MG1655OXA48, read-out: AMP MIC, with 1 μg/mL avibactam) was 32 mg/L. It also gave an MIC (E. coli MG1655OXA-48; MG1655OXA48, read-out: AMP MIC, with 2 μg/mL avibactam) of 16 mg/L, an MIC (E. coli MG1655OXA-48; MG1655OXA48, read-out: AMP MIC, with 4 μg/mL avibactam) of 4 mg/L and an MIC (E. coli MG1655OXA-48; MG1655OXA48, read-out: AMP MIC, with .25 μg/mL avibactam) of 128 mg/L. For the same compound, the MIC (E. coli MG1655OXA-48; MG1655OXA48, read-out: AMP MIC, with .5 μg/mL avibactam) was 64 mg/L, the MIC (E. coli MG1655OXA-48; MG1655OXA48, read-out: IMP MIC, with 0.125 μg/mL avibactam) was 0.312 mg/L and the MIC (E. coli MG1655OXA-48; MG1655OXA48, read-out: IMP MIC, with 1 μg/mL avibactam) was 0.156 mg/L. It also gave an MIC (E. coli MG1655OXA-48; MG1655OXA48, read-out: IMP MIC, with 2 μg/mL avibactam) of 0.156 mg/L, an MIC (E. coli MG1655OXA-48; MG1655OXA48, read-out: IMP MIC, with 4 μg/mL avibactam) of 0.0781 mg/L and an MIC (E. coli MG1655OXA-48; MG1655OXA48, read-out: IMP MIC, with .25 μg/mL avibactam) of 0.312 mg/L. For the same compound, the MIC (E. coli MG1655OXA-48; MG1655OXA48, read-out: IMP MIC, with .5 μg/mL avibactam) was 0.156 mg/L.

For CCOc1ccccc1CCNc1ncnc(N2CCC(C(=O)O)CC2)n1 [CDD-375, 1-(4-((2-ethoxyphenethyl)amino)-1,3,5-triazin-2-yl)piperidine-4-carboxylic acid], the Ki (OXA-48; [1]) was 7.51 ± 0.23 µM.

For CCOc1ccccc1N1CCN(c2ncnc(N3CCC(C(=O)OC)CC3)n2)CC1 [CDD-95, methyl 1-(4-(4-(2-ethoxyphenyl)piperazin-1-yl)-1,3,5-triazin-2-yl)piperidine-4-carboxylate], the “potency/activity against OXA-48 in words” value (OXA-48) was “low of activity; also recorded: significant loss of inhibitory activity” and the Ki (OXA-48; [1]) was ≥ 50 µM.

In the case of CN1CCN(c2ncnc(N3CCC(C(=O)O)CC3)n2)CC1 [CDD-187, 1-(4-(4-methylpiperazin-1-yl)-1,3,5-triazin-2-yl)piperidine-4-carboxylic acid], the Ki (OXA-48; [1]) is reported as > 50 µM.

With CCOc1ccccc1N1CCN(c2nc(NCCCCN)nc(N3CCC(C(=O)O)CC3)n2)CC1 [CDD-863] the “potency/activity against OXA-48 in words” value (OXA-48) was “does not have a large effect on potency” and the Ki (OXA-48; [1]) was 0.45 µM.

Work on CCOc1ccccc1OCCOc1ncnc(N2CCC(C(=O)O)CC2)n1 yielded a Ki (OXA-48; [1]) of 18.8 ± 2.5 µM.

CCOc1ccccc1CCCNc1ncnc(N2CCC(C(=O)O)CC2)n1 [CDD-899] showed a Ki (OXA-48; [1]) of 15 µM.

For CCOc1ccccc1N1CCN(c2nc(NCCN)nc(N3CCC(C(=O)O)CC3)n2)CC1 [drawing 44], the Ki (OXA-48; [1]) was 0.84 ± 0.03 µM.

In the case of colistin [reference compound], the “colistin concentration at which bacteria were completely killed off regardless of the presence of AMP” value (E. coli MG1655OXA-48; colistin, with or without AMP) is reported as “At ≥2 μg/mL colistin, bacteria were completely”.

CC1(C)S[C@@H]2[C@H](NC(=O)[C@H](N)c3ccccc3)C(=O)N2[C@H]1C(=O)O [AMP, ampicillin, reference compound] showed an MIC (E. coli MG1655OXA-48; MG1655OXA48, read-out: AMP MIC, ampicillin alone, no inhibitor) of 512 mg/L, an MIC (E. coli MG1655OXA-48; MG1655OXA48, read-out: AMP MICs, (−) CDD-97, colistin 0 μg/mL) of 1020 mg/L and an MIC (E. coli MG1655OXA-48; MG1655OXA48, read-out: AMP MICs, (−) CDD-97, colistin 0.0625 μg/mL) of 1020 mg/L. It also gave an MIC (E. coli MG1655OXA-48; MG1655OXA48, read-out: AMP MICs, (−) CDD-97, colistin 0.125 μg/mL) of 1020 mg/L, an MIC (E. coli MG1655OXA-48; MG1655OXA48, read-out: AMP MICs, (−) CDD-97, colistin 0.25 μg/mL) of 512 mg/L and an MIC (E. coli MG1655OXA-48; MG1655OXA48, read-out: AMP MICs, (−) CDD-97, colistin 0.5 μg/mL) of 256 mg/L. For the same compound, the MIC (E. coli MG1655OXA-48; MG1655OXA48, read-out: AMP MICs, (−) CDD-97, colistin 1 μg/mL) was 256 mg/L.
